Laboratory results: PubChem BioAssay AID248 (DTP/NCI, 2004)
Toxic doses and inconclusive results are not listed.

Test system: L1210 leukemia ip in BDF1 mice, survival T/C
Assay: NCI In Vivo Anticancer Drug Screen. Data for tumor model L1210 Leukemia (intraperitoneal) in B6D2F1 (BDF1) mice
Conditions: endpoint: mean survival time, higher = longer survival
Outline: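 Mice bearing the transplanted tumor received compound or vehicle. Survival of the treated group was divided by that of the vehicle-treated control group to give the ratio.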

[1] = dose: 100.0 mg/kg/injection, schedule: Q04DX003 (ip), vehicle: saline with Tween-80
[2] = dose: 200.0 mg/kg/injection, schedule: Q04DX003 (ip), vehicle: saline with Tween-80
[3] = dose: 400.0 mg/kg/injection, schedule: Q04DX003 (ip), vehicle: saline with Tween-80

SMILES: O=C(Nc1ccc(C2=NCCN2)cc1)c1cccc(C(=O)Nc2ccc(C3=NCCN3)cc2)c1O
- T/C (dose: 2.5 mg/kg/injection, schedule: Q01DX Z (ip), vehicle: carboxymethylcellulose (CMC)): 120 % of control
- T/C (dose: 5.0 mg/kg/injection, schedule: Q01DX Z (ip), vehicle: carboxymethylcellulose (CMC)): 105 % of control
- T/C (dose: 7.5 mg/kg/injection, schedule: Q01DX Z (ip), vehicle: carboxymethylcellulose (CMC)): 109 % of control
- T/C (dose: 10.0 mg/kg/injection, schedule: Q01DX Z (ip), vehicle: carboxymethylcellulose (CMC)): 157 % of control
- T/C (dose: 15.0 mg/kg/injection, schedule: Q01DX Z (ip), vehicle: carboxymethylcellulose (CMC)): 259 % of control
- T/C (dose: 20.0 mg/kg/injection, schedule: Q01DX Z (ip), vehicle: carboxymethylcellulose (CMC)): 272 % of control
- T/C (dose: 30.0 mg/kg/injection, schedule: Q01DX Z (ip), vehicle: carboxymethylcellulose (CMC)): 296 % of control
- T/C (dose: 31.0 mg/kg/injection, schedule: Q01DX Z (oral), vehicle: carboxymethylcellulose (CMC)): 106 % of control
- T/C (dose: 62.0 mg/kg/injection, schedule: Q01DX Z (oral), vehicle: carboxymethylcellulose (CMC)): 102 % of control
- T/C (dose: 125.0 mg/kg/injection, schedule: Q01DX Z (oral), vehicle: carboxymethylcellulose (CMC)): 113 % of control
- T/C (dose: 250.0 mg/kg/injection, schedule: Q01DX Z (oral), vehicle: carboxymethylcellulose (CMC)): 104 % of control

SMILES: CC(=O)OCCC(=O)N1Cc2cc3ccccc3nc2C1
- T/C (dose: 10.0 mg/kg/injection, schedule: Q04DX003 (ip), vehicle: alcohol): 96 % of control
- T/C (dose: 20.0 mg/kg/injection, schedule: Q04DX003 (ip), vehicle: alcohol): 94 % of control
- T/C (dose: 40.0 mg/kg/injection, schedule: Q04DX003 (ip), vehicle: alcohol): 96 % of control
- T/C (dose: 80.0 mg/kg/injection, schedule: Q04DX003 (ip), vehicle: alcohol): 96 % of control
- T/C (dose: 160.0 mg/kg/injection, schedule: Q04DX003 (ip), vehicle: alcohol): 92 % of control

SMILES: CC1CN1P1(=O)OCC(C)([N+](=O)[O-])CO1 (stereo unspecified)
- T/C (dose: 50.0 mg/kg/injection, schedule: Q01DX001 (ip), vehicle: carboxymethylcellulose (CMC)): 106 % of control
- T/C (dose: 100.0 mg/kg/injection, schedule: Q01DX001 (ip), vehicle: carboxymethylcellulose (CMC)): 110 % of control
- T/C (dose: 200.0 mg/kg/injection, schedule: Q01DX001 (ip), vehicle: carboxymethylcellulose (CMC)): 104 % of control
- T/C (dose: 400.0 mg/kg/injection, schedule: Q01DX001 (ip), vehicle: carboxymethylcellulose (CMC)): 112 % of control

SMILES: C=C1C(C(=O)OCC)C1C(=O)OCC (stereo unspecified)
- T/C (dose: 50.0 mg/kg/injection, schedule: Q04DX002 (ip), vehicle: saline with Tween-80): 98 % of control
- T/C (dose: 100.0 mg/kg/injection, schedule: Q04DX002 (ip), vehicle: saline with Tween-80): 103 % of control
- T/C (dose: 200.0 mg/kg/injection, schedule: Q04DX002 (ip), vehicle: saline with Tween-80): 106 % of control
- T/C (dose: 400.0 mg/kg/injection, schedule: Q04DX002 (ip), vehicle: saline with Tween-80): 98 % of control

SMILES: O=C(O)CNC(=O)c1cccc([N+](=O)[O-])c1
- T/C (dose: 100.0 mg/kg/injection, schedule: Q04DX003 (ip), vehicle: Klucel (hydroxypropylcellulose) (HPC)): 99 % of control
- T/C (dose: 200.0 mg/kg/injection, schedule: Q04DX003 (ip), vehicle: Klucel (hydroxypropylcellulose) (HPC)): 101 % of control
- T/C (dose: 400.0 mg/kg/injection, schedule: Q04DX003 (ip), vehicle: Klucel (hydroxypropylcellulose) (HPC)): 94 % of control

SMILES: O=C1OCCC1C(=O)C(O)(C(F)(F)F)C(F)(F)F (stereo unspecified)
- T/C (dose: 100.0 mg/kg/injection, schedule: Q01DX009 (ip), vehicle: other): 96 % of control
- T/C (dose: 200.0 mg/kg/injection, schedule: Q01DX009 (ip), vehicle: other): 100 % of control
- T/C (dose: 400.0 mg/kg/injection, schedule: Q01DX009 (ip), vehicle: other): 94 % of control

SMILES: NCC1COc2ccccc2N1 (stereo unspecified)
- T/C (dose: 100.0 mg/kg/injection, schedule: Q04DX002 (ip), vehicle: other): 108 % of control
- T/C (dose: 200.0 mg/kg/injection, schedule: Q04DX002 (ip), vehicle: other): 101 % of control
- T/C (dose: 400.0 mg/kg/injection, schedule: Q04DX002 (ip), vehicle: other): 111 % of control

SMILES: Nc1ccc([N+](=O)[O-])cc1C(O)(C(F)(F)F)C(F)(F)F (tested in a mixture with another compound)
- T/C (dose: 100.0 mg/kg/injection, schedule: Q01DX009 (ip), vehicle: saline with Tween-80): 101 % of control
- T/C [1]: 101 % of control
- T/C (dose: 200.0 mg/kg/injection, schedule: Q01DX009 (ip), vehicle: saline with Tween-80): 94 % of control
- T/C [2]: 100 % of control
- T/C [3]: 97 % of control

SMILES: CCCCCCCCCCCCCCCCNC(=O)C[N+](C)(C)Cc1ccccc1
- T/C (dose: 2.5 mg/kg/injection, schedule: Q01DX009 (ip), vehicle: saline with Tween-80): 101 % of control
- T/C (dose: 5.0 mg/kg/injection, schedule: Q01DX009 (ip), vehicle: saline with Tween-80): 98 % of control

SMILES: Cc1cccc(NC(=O)c2ccccc2)n1
- T/C [1]: 97 % of control
- T/C [2]: 95 % of control
- T/C [3]: 92 % of control

SMILES: O=S(=O)(O)CCCN1CCCCC1
- T/C (dose: 100.0 mg/kg/injection, schedule: Q01DX009 (ip), vehicle: saline): 107 % of control
- T/C (dose: 200.0 mg/kg/injection, schedule: Q01DX009 (ip), vehicle: saline): 112 % of control
- T/C (dose: 400.0 mg/kg/injection, schedule: Q01DX009 (ip), vehicle: saline): 98 % of control
